The values that follow come from patent US5905076A, “6-substituted amino-4-oxa-1-azabicyclo [3,2,0] heptan-7-one derivatives as cysteine protease inhibitors” (National Research Council of Canada, priority 1997, dated 1999).

Some results are limits rather than exact numbers.

One experiment has as its target cathepsin B (Rattus norvegicus, UniProt P00787). Nature of the experiment: In vitro inhibition of cathepsin B. It is filed as biochemical. Particulars: r rat cathepsin B, substrate N-CBZ-Phe-Arg-AMC, pH 5.1, 10 min incubation at room temperature. As for the experimental part: In vitro assay procedure for cathepsin B
The compounds of formula I were tested for inhibition of cathepsin B using the known method (A. J. Barret et al., Biochem. J. 1982, 201, 189-198). To a 170 μl of enzyme-buffer mixture (enzyme: r rat cathepsin B, diluted to give approximate 10 F units/min, buffer: 56 mM sodium acetate, 1.124 mM EDTA, 10 mM DTT, pH 5.1) a 10 μL of inhibitor (dissolved in DMSO) was added. After 10 min of incubation at room temperature, a 20 μl of 5 mM substrate (N-CBZ-Phe-Arg-AMC, dissolved in DMSO) was added to initiate reaction. Reading is followed up for 10 min at the fluoroscan reader (excitation at 380 nm emission at 460 nm).
A plot of percentage of inhibition vs inhibitor concentration is obtained, and IC50 is determined using a linear regression calculations (concentration of inhibitor which will give 50% inhibition).

Another experiment concerns the target cathepsin L (Rattus norvegicus, UniProt P07154). Briefly: In vitro inhibition of cathepsin L. The class given is biochemical. The settings on record: r rat cathepsin L, substrate N-CBZ-Phe-Arg-AMC, pH 5.0, 10 min incubation at room temperature. Here is the method:
In vitro assay procedure for cathepsin L
After 10 min of incubation at room temperature, a 20 μl of 1 mM substrate (N-CBZ-Phe-Arg-AMC, dissolved in DMSO) was added to initiate reaction. Reading is followed up for 10 min at the fluoroscan reader (excitation at 380 nm emission at 460 nm).

cathepsin B, sequence (P00787 80-339): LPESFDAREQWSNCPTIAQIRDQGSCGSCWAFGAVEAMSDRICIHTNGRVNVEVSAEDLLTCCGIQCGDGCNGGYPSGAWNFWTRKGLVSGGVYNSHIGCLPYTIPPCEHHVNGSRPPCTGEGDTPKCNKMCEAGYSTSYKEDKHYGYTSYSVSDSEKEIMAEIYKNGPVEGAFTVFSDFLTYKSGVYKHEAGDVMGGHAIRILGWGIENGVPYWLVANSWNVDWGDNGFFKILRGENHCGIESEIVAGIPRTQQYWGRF
cathepsin L, sequence (P07154 114-334): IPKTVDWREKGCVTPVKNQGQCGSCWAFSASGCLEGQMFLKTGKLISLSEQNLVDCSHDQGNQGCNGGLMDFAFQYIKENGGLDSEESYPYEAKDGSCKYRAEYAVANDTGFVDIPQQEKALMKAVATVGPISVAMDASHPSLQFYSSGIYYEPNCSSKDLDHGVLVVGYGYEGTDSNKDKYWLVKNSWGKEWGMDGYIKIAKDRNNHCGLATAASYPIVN

As usually defined, the IC50 is the concentration at which inhibition is half-maximal. Read a high IC50 as lower potency. As to `O=C(CCc1ccccc1)N[C@@H](Cc1ccccc1)C(=O)N[C@@H]1C(=O)N2CC(CBr)O[C@@H]12` (stereo partly drawn) [Example 10, (5S,6S)-6-{N-(3-phenylpropionoyl)-L-phenylalanyl}-amino-3-bromomethyl-4-oxa-1-azabicyclo[3.2.0]heptan-7-one], the IC50 against cathepsin B is 1.91 µM; against cathepsin L it was 0.016 µM. On to `O=C(N[C@@H](Cc1ccccc1)C(=O)N[C@@H]1C(=O)N2CCO[C@H]12)OCc1ccccc1` [Example 2, (5R,6S)-6-(N-benzyloxycarbonyl-L-phenylalanyl)-amino-4-oxa-1-azabicyclo[3.2.0]heptan-7-one], for which the IC50 against cathepsin B was found to be 4.56 µM; at cathepsin L, 0.26 µM.

Consider `O=C(NC(C(=O)N[C@@H]1C(=O)N2CCO[C@H]12)c1ccccc1)OCc1ccccc1` (stereo partly drawn) [Example 7, (5R,6S)-6-(N-benzyloxycarbonyl-phenylglycyl)-amino-4-oxa-1-azabicyclo[3.2.0]heptan-7-one], for which the IC50 against cathepsin B is over 50 µM. Still for that read-out and setting: then `C[C@H](NC(=O)OCc1ccccc1)C(=O)N[C@@H]1C(=O)N2CCO[C@H]12` [Example 5, (5R,6S)-6-(N-benzyloxycarbonyl-L-alanyl)-amino-4-oxa-1-azabicyclo[3.2,0]heptan-7-one], with over 50 µM. Regarding `O=C(N[C@@H]1C(=O)N2CCO[C@H]12)OCc1ccccc1` [Example 1, (5R,6S)-6-benzyloxycarbonylamino-4-oxa-1-azabicyclo[3.2.0]heptan-7-one], the IC50 on cathepsin B and on cathepsin L was over 50 µM in each case.

On to `CC[C@H](C)[C@H](NC(=O)OCc1ccccc1)C(=O)N[C@@H]1C(=O)N2CCO[C@H]12` [Example 4, (5R,6S)-6-(N-benzyloxycarbonyl-L-isoleucyl)-amino-4-oxa-1-azabicyclo[3.2.0]heptan-7-one], for which the IC50 at cathepsin B was over 50 µM; against cathepsin L, 9.88 µM. On to `CC(C)C[C@H](NC(=O)OCc1ccccc1)C(=O)N[C@@H]1C(=O)N2CCO[C@H]12` [Example 6, (5R,6S)-6-(N-benzyloxycarbonyl-L-leucyl)-amino-4-oxa-1-azabicyclo[3.2,0]heptan-7-one], for which the IC50 on cathepsin B came to 30 µM; against cathepsin L, 0.6 µM. On cathepsin B, `O=C(N[C@@H](Cc1ccccc1)C(=O)N[C@@H]1C(=O)N2CCO[C@@H]12)OCc1ccccc1` [Example 8, (5S,6S)-6-(N-benzyloxycarbonyl-L-phenylalanyl)-amino-4-oxa-1-azabicyclo[3.2.0]heptan-7-one] had an IC50 of 12.2 µM. For the compound `O=C(N[C@@H]1C(=O)N2CCO[C@H]12)[C@@H]1CCCN1C(=O)OCc1ccccc1` [Example 3, (5R,6S)-6-(N-benzyloxycarbonyl-L-prolyl)-amino-4-oxa-1-azabicyclo[3.2.0]heptan-7-one], the IC50 on cathepsin B was over 50 µM; on cathepsin L it was 9.4 µM. As for `O=C(CCc1ccccc1)N[C@@H](Cc1ccccc1)C(=O)N[C@@H]1C(=O)N2CC(c3ccccc3)O[C@H]12` (stereo partly drawn) [Example 9, (5R,6S)-6-{N-(3-phenylpropionoyl)-L-phenylalanyl}-amino-3-phenyl-4-oxa-1-azabicyclo[3,2.0]heptan-7-one], the IC50 on cathepsin B and against cathepsin L was over 50 µM throughout.
